{"source": "patent US9587239B2", "about": "“Methods of identifying and treating glioblastoma” (THE TRANSLATIONAL GENOMICS RESEARCH INSTITUTE, priority 2008, dated 2017)", "key": {"SF767 cells": {"test_system": "SF767 cells", "test": "Alamar Blue cell viability assay, SF767", "assay_type": "cell-based", "conditions": "Homo sapiens, 48 hours", "experimental": "(§1) The Alamar Blue assay was used to assess viability as described previously (See Reference 29, incorporated by reference in its entirety). Briefly, 4000 cells of each population were seeded in quadruplicate wells of 96-well plastic plates in 200 μl of culture medium supplemented with 10% fetal bovine serum. Cells were treated with various conditions and the assay was developed 48 hours later. Alamar Blue was then added to the cells in a volume of 20 μl (10% of total volume) per well and the plates were incubated for 6 hours at 37° C. The plates were read on a fluorescence plate reader (excitation, 560 nm; emission, 600 nm). Averages of the fluorescence values were calculated and normalized to controls without Temozolomide."}, "T98G cells": {"test_system": "T98G cells", "test": "Alamar Blue cell viability assay, T98G", "assay_type": "cell-based", "conditions": "Homo sapiens, 48 hours", "experimental": "as §1"}}}
{"smiles": "Cn1nnc2c(C(N)=O)ncn2c1=O", "note": "[Temozolomide]", "values": [{"measurement": "IC50", "setting": "SF767 cells", "result": 125, "unit": "µM"}, {"measurement": "IC50", "setting": "T98G cells", "result": 250, "unit": "µM"}]}
